Experimental data taken from patent publication US20110082203A1, “PROCESS TO DIAGNOSE OR TREAT BRAIN INJURY” (priority 2008, published 2011).

Legend:
[1] = Body weight loss after controlled cortical impact (CCI) TBI; format: in vivo, rat; conditions: 5 mg/kg i.p. five minutes prior to TBI
Description: (§1) In vivo model of TBI injury model: A controlled cortical impact (CCI) device is used to model TBI on rats as previously described (Pike et al, 1998). Adult male (280-300 g) Sprague-Dawley rats (Harlan: Indianapolis, Ind.) are anesthetized with 4% isoflurane in a carrier gas of 1:1 O2/N2O (4 min.) and maintained in 2.5% isoflurane in the same carrier gas. Core body temperature is monitored continuously by a rectal thermistor probe and maintained at 37±1° C. by placing an adjustable temperature controlled heating pad beneath the rats. Animals are mounted in a stereotactic frame in a prone position and secured by ear and incisor bars. Following a midline cranial incision and reflection of the soft tissues, a unilateral (ipsilateral to site of impact) craniotomy (7 mm diameter) is performed adjacent to the central suture, midway between bregma and lambda. The dura mater is kept intact over the cortex. Brain trauma is produced by impacting the right (ipsilateral) cortex with a 5 mm diameter aluminum impactor tip (housed in a pneumatic cylinder) at a velocity of 3.5 m/s with a 1.6 mm compression and 150 ms dwell time.
Subjects are administered CCI essentially as described in Example 2 and CSF is prepared as described in Example 4. […] The vehicle-treatment group receives an equal volume i.p. injection of isotonic saline. […]

[2] = test system: Fluoro-Jade positive neurons; assay: Fluoro-Jade staining of degenerating neurons following CCI, counted by optical fractionator; format: in vivo, rat
Description: Fluoro-Jade is used to determine whether the presence of dicyclomine affects cell death following CCI. Experimental procedures are performed as described by Cox, C D, et al. 2008. Briefly, at 24 hours (±1 hr) following the perfusion, brains are rinsed in 0.1M PB (5 minutes×2), cryoprotected in 10% and 30% solutions of sucrose in 0.1M PB for 1 hour and 48 hours, respectively, and stored in the 30% sucrose/PB solution at −80° C. The brains are blocked and sectioned caudorostrally in 45 μm increments from Bregma—1.9 mm to Bregma—4.15 mm using a sliding microtome (American Optical Corp., model 860). The tissue sections are then mounted onto slides using distilled water and allowed to dry. For the Fluoro-Jade staining procedure (Schmued et al., 1997), the sections are rehydrated using successive 5 minute rinses in 100%, 75%, 50%, and 25% ethanol followed by 3 minutes in dH2O, placed in 0.06% KMNO4 for 15 minutes followed by 2 minutes in dH2O, and then stained in 0.0006% Fluoro-Jade B solution in 0.1% acetic acid for 30 minutes. The slides are air-dried overnight, immersed in xylene, and coverslipped with DPX.
The total number of Fluoro-Jade stained cells within the CA2/CA3 region of the dorsal hippocampus for each subject is estimated using the optical fractionator technique (West et al., 1991) with a computer-based system (Stereologer version 1.3, Systems Planning and Analysis, Inc., Alexandria, Va.). The border of the dorsal CA2/3 pyramidal cell layer within each section was outlined using a 2× objective, and the cells are then manually counted at the 40× magnification. For the cortical cell counts, a site of highly localized Fluoro-Jade positivity observed in the cortex adjacent to the site of impact serves as the ROI: the region was outlined at the 2× magnification and cells were quantified at 40× as with the hippocampal region. A numerical estimate of the total number of cells in each region of interest for each subject is calculated by the software using the equation:
Nobj=(N)(1/SSF)(1/ASF)(1/TSF)
Where N represents the sum of all objects counted for the subject, SSF the section sampling fraction, ASF the area sampling fraction, and TSF the thickness sampling fraction.

[3] = test system: α-II spectrin breakdown products (SBDP); conditions: 5 mg/kg i.p. five minutes prior to TBI
Description: as §1
Tissue and Sample Preparation: At the appropriate time points (2, 6, 24 hours and 2, 3, 5 days) after injury, animals are anesthetized and immediately sacrificed by decapitation. Brains are quickly removed, rinsed with ice cold PBS and halved. […]

## CCN(CC)CCOC(=O)C1(C2CCCCC2)CCCCC1 [Dicyclomine, dicyclomine]
[1]; mean +/- spread, * p<0.01 vs saline
  % Body Weight Loss: *7.8 +/− 2.08%
[1]; p<0.01
  Percent body weight loss compared to the saline-treated group: significantly reduced
[2]; CA2/CA3 dorsal hippocampus, 24 hours post-TBI, 5 mg/kg i.p., vehicle 2982
  Mean number of Fluoro-Jade positive neurons, hippocampal ROI: 2640
[2]; cortex adjacent to impact site, 24 hours post-TBI, 5 mg/kg i.p., vehicle 84392
  Mean number of Fluoro-Jade positive neurons, cortical ROI: 84452
[2]; following TBI
  Effect on neuronal cell viability: no effect
[2]; hippocampal and cortical ROIs, dicyclomine vs vehicle
  Difference in Fluoro-Jade positive neurons between treatment groups (T-test): no significant difference
[3]
  Production of SBDPs in CSF following TBI: inhibits production of SBDPs
